Reference: patent publication US20050222136A1, “Active substance combination” (priority 2004, published 2005)
Counter-ions that a name gives are not always drawn.

Columns and labels:
Type in all cases: in vivo
male Swiss albino mice [1] = test: Writhing test in mice (phenylbenzoquinone-induced writhing reactions); settings: for inhibition at 40 mg/kg / inhibition at 80 mg/kg / inhibition at 160 mg/kg / ED50: Mus musculus; for inhibition at 40 mg/kg / inhibition at 80 mg/kg / inhibition at 160 mg/kg / Writhing test % Activity: 60 minutes prior to phenylbenzoquinone i.p., inhibition of writhing reactions vs control; for ED50: po; for ED50 / Writhing test ED50: mice; for Writhing test ED50: p.o., in mg/kg
Procedure: Ia. Writhing Test in Mice
(§1) The Writhing test for the determination of the analgesic activity of the inventive active substance combination is carried out according to the method described in the publication of E. Siegmund et al., Proc. Soc. Exp. Biol. Med. 1957, 95, 729-731 using male Swiss albino mice (20-25 g body weight, obtained from Harlan, S. Feliu de Codinas, Spain). The respective part of the description is hereby incorporated by reference and forms part of the respective disclosure.
The Writhing reactions are induced by intraperitoneal injection of phenylbenzoquinone (25 ml/kg in a 0.02% (volume/volume) ethanolic solution in a 5% (volume/volume) solution in destillated water with Evan's blue in an amount of 0.1% weight/volume) and the writhing reactions are counted during a 15 minute period following the injection. The substances to be tested are orally administered 60 minutes prior to the injection of the phenylbenzoquinone solution. The percentage of the inhibition of the writhing reactions is calculated on the basis of the control group as basis for 0% inhibition.

male Wistar albino rats = test: Determination of ulcerogenic effect in rats; settings: stomach three hours after administration
Procedure: II. Determination of Ulcerogenic Effect in Rats The ulcerogenic effect of the inventive active substance combination is determined in male Wistar albino rats (body weight 160-200 g, obtained from Harlan, S. Feliu de Codinas, Spain) according to the method described in the publication of J. L. Wallace et al., […]. 1990, 259, […]-[…]. The respective part of the description is incorporated by reference and forms part of the present disclosure. Prior to the tests the rats are kept in cages for 24 hours with free access to drinking water. Afterwards the substances to be tested are orally administered to the rats in form of a 5% by weight suspension in arabic gum. Three hours after the administration of the respective substances to be tested the rats are sacrificed by inhalation of carbon dioxide, the stomachs are removed, opened along the great curvature, washed with saline solution and extended over a suitable frame. By the use of a Projectt 1.2 image analyzer (Projectt, Barcelona, Spain) the ulcerated areas of the stomachs are determined and their size expressed in mm^2.

male Swiss albino mice [2] = test: Formaline test in mice; settings: for inhibition at 40 mg/kg: Mus musculus, ip
Procedure: Ib. Formaline Test in Mice
as §1, with “Formaline” for “Writhing”, “T. Ohkubo” for “E. Siegmund”, “J. Pharmacol.” for “Proc. Soc.”, “Ther. 1990, 252, 1261-1268” for “Biol. Med. 1957, 95, 729-731”
The substances to be tested are intraperitoneally administered to the mice in 5% by weight solution of arabic gum in destined water as vehicle. 15 minutes later 20 μl of a 5% by weight solution of formaline in saline solution is injected into the back of the right paw of the animals. The total time in seconds of licking and/or biting the injected paw is registered in the acute phase, i.e. 0-5 minutes (phase I), and in the chronic phase, i.e. 15-30 (phase II), minutes after injection of the formaline. The percentage of inhibition is calculated based on the medium values of the acute and chronic phases of the control group as 0% inhibition of the primary and secondary response.

[3] = 40 mg/kg i.p., acute phase 0-5 minutes after formaline, inhibition of licking/biting time, read-out: Formaline test % Activity Phase I
[4] = read-out: Formaline test % Activity Phase II

Structure (SMILES) | inhibition at 40 mg/kg (male Swiss albino mice [1]; 40 mg/kg p.o.) | inhibition at 80 mg/kg (male Swiss albino mice [1]; 80 mg/kg p.o.) | inhibition at 160 mg/kg (male Swiss albino mice [1]; 160 mg/kg p.o.) | ED50 (male Swiss albino mice [1]) | Ulcerated area (male Wistar albino rats; 80 mg/kg p.o.) | Writhing test % Activity (male Swiss albino mice [1]; 40 mg/kg p.o.) | Writhing test % Activity (male Swiss albino mice [1]; 80 mg/kg p.o.) | Writhing test % Activity (male Swiss albino mice [1]; 160 mg/kg p.o.) | Writhing test ED50 (male Swiss albino mice [1]) | Ulcerated area (male Wistar albino rats; 160 mg/kg p.o.) | also measured
O=C(O)Cc1ccccc1Nc1c(Cl)cccc1Cl [Diclofenac-sodium, diclofenac in form of its sodium salt, reference compound] | 19.8% | 54.9% | 84.1% | 75.1 mg/kg | 13.7 mm^2 | – | – | – | – | – | Ulcerated area (male Wistar albino rats; 40 mg/kg p.o.): 3.81 mm^2
CC(C)Cc1ccc(C(C)C(=O)O)cc1 (stereo not shown) [Ibuprofen, reference compound] | 19.8% | 47.6% | 62.9% | 103 mg/kg | – | – | – | – | – | – | –
CC(C)Cc1ccc(C(C)C(=O)O)cc1.[Na] (stereo not shown) [Ibuprofen-sodium, ibuprofen-sodium, reference compound] | – | – | – | – | 5.29 mm^2 | – | – | – | – | – | –
COc1ccc2cc([C@H](C)C(=O)O)ccc2c1 [Naproxen, reference compound] | 32% | 51.2% | 78.5% | 71.2 mg/kg | 10.5 mm^2 | – | – | – | – | – | inhibition at 40 mg/kg (male Swiss albino mice [2]; [3]): 31.5%; inhibition at 40 mg/kg (male Swiss albino mice [2]; [4]): 18%
CN(C)CCO[C@H](c1ccccc1)c1ccnn1C.O=C(O)Cc1ccccc1Nc1c(Cl)cccc1Cl [R-(+)-Cizolirtine diclofenacate, R-(+)-5-[α-[2-(Dimethylamino)ethoxy]benzyl]-1-methyl-1H-pyrazole diclofenacate] | – | – | – | – | 2.75 mm^2 | 14.7% | 57.3% | 72.1% | 84 | 7.24 mm^2 | –
CC(C)Cc1ccc([C@H](C)C(=O)O)cc1.CN(C)CCO[C@H](c1ccccc1)c1ccnn1C [R-(+)-Cizolirtine ibuprofenate, R-(+)-5-[α-[2-(Dimethylamino)ethoxy]benzyl]-1-methyl-1H-pyrazole S-(+)-ibuprofenate] | – | – | – | – | – | 15.9% | 45% | 80.9% | 84.8 | 3.21 mm^2 | –
CN(C)CCO[C@H](c1ccccc1)c1ccnn1C.COc1ccc2cc([C@H](C)C(=O)O)ccc2c1 [R-(+)-Cizolirtine naproxenate, R-(+)-5-[α-[2-(Dimethylamino)ethoxy]benzyl]-1-methyl-1H-pyrazole naproxenate] | – | – | – | – | – | 32.0% | 52.0% | 77.3% | 71.29 | 6.86 mm^2 | Formaline test % Activity Phase I (male Swiss albino mice [2]; 40 mg/kg i.p., acute phase 0-5 minutes after formaline, inhibition of licking/biting time): 49%; Formaline test % Activity Phase II (male Swiss albino mice [2]; 40 mg/kg i.p., chronic phase 15-30 minutes after formaline, inhibition of licking/biting time): 36%
CN(C)CCO[C@H](c1ccccc1)c1ccnn1C [R-(+)-Cizolirtine, R-(+)5-[α-[2-(Dimethylamino)ethoxy]benzyl]-1-methyl-1H-pyrazole] | 29% | 49.7% | 72.5% | 79 mg/kg | – | 28.9% | – | – | 79 | – | inhibition at 40 mg/kg (male Swiss albino mice [2]; [3]): 83%; inhibition at 40 mg/kg (male Swiss albino mice [2]; [4]): 68.5%
CN(C)CCO[C@@H](c1ccccc1)c1ccnn1C.COc1ccc2cc([C@H](C)C(=O)O)ccc2c1 [S-(−)-Cizolirtine naproxenate, S-(−)-5-[α-[2-(Dimethylamino)ethoxy]benzyl]-1-methyl-1H-pyrazole naproxenate] | – | – | – | – | – | 26.7% | 52.4% | 68.5% | 82.15 | – | –
CN(C)CCO[C@@H](c1ccccc1)c1ccnn1C [S-(−)-Cizolirtine, S-(−)-5-[α-[2-(Dimethylamino)ethoxy]benzyl]-1-methyl-1H-pyrazole] | – | – | – | – | – | 29.0% | 49.7% | 59.7% | 95.26 | – | –
